Experimental data reported in patent publication US20130310374A1, “Substituted Imidazoquinoline Derivatives” (PIRAMAL ENTERPRISES LIMITED`, priority 2010, published 2013).

Legend:
A2780 = assay: Cytotoxicity propidium iodide assay, A2780; assay type: cell-based; conditions: Homo sapiens; A2780 (ovarian), 48 hours treatment; read-out: IC50 Values in μM, C1a
Summary of the method: (§1)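 Following a 48 h treatment with various compound concentrations, cells plated at 3000 per well were stained with […] propidium iodide and frozen overnight. Fluorescence after thawing gave percent viability against untreated controls, from which IC50 values were calculated.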

PC3 = assay: Cytotoxicity propidium iodide assay, PC3; assay type: cell-based, human; conditions: Homo sapiens, PC-3; PC3 (prostate), 48 hours treatment; read-out: IC50 Values in μM, C2a
Summary of the method: as §1

BxPC3 = assay: Cytotoxicity propidium iodide assay, BxPC3; assay type: cell-based; conditions: Homo sapiens, BXPC-3; BxPC3 (pancreatic), 48 hours treatment; read-out: IC50 Values in μM, C4c
Summary of the method: as §1

KU812/SR = assay: Cytotoxicity propidium iodide assay, KU812/SR; assay type: cell-based; conditions: Homo sapiens; KU812/SR (CML), 48 hours treatment; read-out: IC50 Values in μM, C6c
Summary of the method: as §1

KCL22/SR = assay: Cytotoxicity propidium iodide assay, KCL22/SR; assay type: cell-based; conditions: Homo sapiens, KCL-22; KCL22/SR (CML), 48 hours treatment; read-out: IC50 Values in μM, C6e
Summary of the method: as §1

IFN-γ = assay: Anti-CD3 mAb and anti-CD28 mAb-induced cytokine production assay, IFN-γ; assay type: cell-based; conditions: Homo sapiens, hPBMC, anti-CD3/anti-CD28, 18 hours
Experimental: Anti-CD3 mAb and Anti-CD28 mAb-Induced Cytokine Production Assay
Preparation of anti-CD3/anti-CD28 coated plates: 96 well plates were coated with goat anti-mouse IgG, Fc (Millipore) at a concentration of 16.5 μg/mL in coating buffer ([…] NaHCO3, 3.56 g Na2CO3, pH 9.5). Following overnight incubation at 4° C., the plates were washed and then incubated with anti-CD3 (3.5 μg/mL; R&D Systems) and anti-CD28 (35 ng/mL; R&D Systems) cocktail for 3 hours. Subsequently, the plates were washed, and used for hPBMC stimulation.
hPBMC stimulation: Peripheral blood was collected from normal healthy volunteers after informed consent. Peripheral blood mononuclear cells (hPBMC) were harvested using Ficoll-Hypaque density gradient centrifugation (1.077 g/mL; Sigma Aldrich). hPBMCs were resuspended in RPMI 1640 culture medium (Gibco BRL, Pasley, UK) containing 10% FCS, 100 U/mL penicillin (Sigma Chemical Co. St Louis, Mo.) and […] streptomycin (Sigma Chemical Co. St Louis, Mo.) at 1.25×10^6 cells/mL of assay medium. 2.5×10^5 hPBMCs were added per well of 96-well plate coated with or without anti-CD3/anti-CD28 mAbs. Simultaneously, 0.025 μM of compounds of the present invention or 0.5% DMSO (vehicle control) were added to appropriate wells. The cells were then incubated for 18 hours at 37° C., 5% CO2 following which supernatants were collected, stored at […] and assayed later for TNF-α, IL-6 and IFN-γ by ELISA (OptiEIA ELISA sets; BD Biosciences). In every experiment, each condition was run in triplicate wells. In all experiments, the toxicity of test compounds was ascertained, in parallel, using the MTS (3-(4,5-dimethylthiazol-2-yl)-5-(3-carboxymethoxyphenyl)-2-(4-sulfonyl)-2H-tetrazolium) assay as described in Am. J. Physiol. Cell Physiol., 2003, 285, C813-C822.

PI3Kα = molecular target: T1, PI3Kα (Homo sapiens, UniProt P42336); assay: p110α radioactive lipid kinase assay (PI3Kα); assay type: biochemical; conditions: 25 μM ATP
T1 construct: purchased Upstate Millipore
Experimental: Protocol for Kinase Assay (PI3Kα)
p110α Radioactive Lipid Kinase Assay
The assay was designed as in the reference, Journal of Biomolecular Screening, 2002, Vol. 7, No. 5, 441-450, the disclosure of which is incorporated herein by reference for the teaching of the assay.
The p110α biochemical assay was performed using a radioactive assay measuring the incorporation of ^32P into the p110α substrate, phosphatidylinsoitol (PI). For the generation of IC50 curves, the reaction was performed in a 96-well MaxiSorp plates. Plates were pre-coated with 4 μg/well of a 1:1 ratio of phosphatidylinositol (PI: Avanti #840042C) and phosphatidylserine (PS: Avanti #840032C) diluted in CHCl3. Equal amount of p110α (Upstate Millipore) protein was added to each well, containing 25 μL reaction buffer (50 mM MOPSO pH7.0, 100 mM NaCl, 4 mM MgCl2, 0.1% (w/v) BSA) whereas, for negative control, only reaction buffer was added. Compounds of the present invention dissolved in DMSO were treated at nine-point dose responses (0.3, 1, 3, 6, 10, 30, 60, 100 and 300 nM). Reactions were initiated by the addition of 25 μM ATP solution (Sigma, USA) containing 50 μCi/mL [γ-^32P]-ATP and incubated at RT for 2 hours with gentle shaking. […] The radioactivity incorporated into the immobilized PI substrate was determined with Top Count (Perkin Elmer). Inhibition was calculated using the following equation: […]

T1 sequence (P42336 whole entry, species assumed): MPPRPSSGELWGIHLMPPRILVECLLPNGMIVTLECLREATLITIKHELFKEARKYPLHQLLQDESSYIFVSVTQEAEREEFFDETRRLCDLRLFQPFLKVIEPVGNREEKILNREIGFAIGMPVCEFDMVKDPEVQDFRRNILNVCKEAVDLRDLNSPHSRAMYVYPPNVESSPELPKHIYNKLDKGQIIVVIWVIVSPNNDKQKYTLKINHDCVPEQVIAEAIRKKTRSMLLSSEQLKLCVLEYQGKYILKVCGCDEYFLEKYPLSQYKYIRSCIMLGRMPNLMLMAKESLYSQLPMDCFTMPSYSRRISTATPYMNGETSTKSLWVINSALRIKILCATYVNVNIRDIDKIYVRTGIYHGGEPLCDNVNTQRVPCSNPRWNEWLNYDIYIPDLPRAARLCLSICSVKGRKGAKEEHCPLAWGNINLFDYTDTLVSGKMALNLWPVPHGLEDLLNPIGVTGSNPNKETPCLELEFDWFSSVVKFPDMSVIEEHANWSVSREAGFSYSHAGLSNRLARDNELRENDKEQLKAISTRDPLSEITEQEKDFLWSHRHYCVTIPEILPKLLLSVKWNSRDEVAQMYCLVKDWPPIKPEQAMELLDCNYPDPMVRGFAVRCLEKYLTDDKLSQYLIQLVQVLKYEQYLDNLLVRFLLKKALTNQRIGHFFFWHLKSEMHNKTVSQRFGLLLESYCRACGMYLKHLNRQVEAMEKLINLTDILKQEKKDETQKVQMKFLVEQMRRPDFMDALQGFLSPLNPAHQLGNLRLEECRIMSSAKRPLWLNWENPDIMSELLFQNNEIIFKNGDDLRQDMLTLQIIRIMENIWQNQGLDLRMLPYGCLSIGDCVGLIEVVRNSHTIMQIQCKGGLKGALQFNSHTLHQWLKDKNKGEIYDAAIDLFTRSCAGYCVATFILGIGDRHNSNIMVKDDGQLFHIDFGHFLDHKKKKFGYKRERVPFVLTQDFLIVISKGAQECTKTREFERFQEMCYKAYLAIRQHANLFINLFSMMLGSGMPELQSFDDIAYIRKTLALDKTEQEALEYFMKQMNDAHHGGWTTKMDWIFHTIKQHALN
T1 sequence (P27986 whole entry partner, species assumed): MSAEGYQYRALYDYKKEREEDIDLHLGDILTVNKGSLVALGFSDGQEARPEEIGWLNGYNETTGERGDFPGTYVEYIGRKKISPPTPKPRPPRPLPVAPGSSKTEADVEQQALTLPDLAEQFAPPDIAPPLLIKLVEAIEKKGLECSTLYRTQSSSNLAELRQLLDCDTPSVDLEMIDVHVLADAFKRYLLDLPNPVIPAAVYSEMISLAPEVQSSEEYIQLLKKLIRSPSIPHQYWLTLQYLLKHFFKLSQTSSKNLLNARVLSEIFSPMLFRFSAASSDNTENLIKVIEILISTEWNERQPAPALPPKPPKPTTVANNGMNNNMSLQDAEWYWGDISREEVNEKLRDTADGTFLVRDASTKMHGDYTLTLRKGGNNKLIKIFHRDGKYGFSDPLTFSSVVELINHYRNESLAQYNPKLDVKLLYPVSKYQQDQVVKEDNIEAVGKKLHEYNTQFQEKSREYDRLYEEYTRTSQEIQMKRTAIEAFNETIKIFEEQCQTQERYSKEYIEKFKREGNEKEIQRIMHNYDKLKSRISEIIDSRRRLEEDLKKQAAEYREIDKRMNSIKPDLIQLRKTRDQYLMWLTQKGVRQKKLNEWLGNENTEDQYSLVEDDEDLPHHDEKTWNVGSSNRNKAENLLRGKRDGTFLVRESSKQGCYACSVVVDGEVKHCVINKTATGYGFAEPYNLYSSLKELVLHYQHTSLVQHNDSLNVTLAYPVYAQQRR

IC50 (PI3Kα) | SMILES | IC50 (A2780) | IC50 (PC3) | IC50 (BxPC3) | IC50 (KU812/SR) | IC50 (KCL22/SR) | inhibition at 0.025 µM (IFN-γ)
 | CC(C)(C#N)c1ccc(-n2c(=O)n(CC#N)c3cnc4ccc(-c5cnc(N)c(C(F)(F)F)c5)cc4c32)cn1 [Example 16, 2-(5-(8-(6-Amino-5-(trifluoromethyl)pyridin-3-yl)-3-(cyanomethyl)-2-oxo-2,3-dihydro-1H-imidazo[4,5-c]quinolin-1-yl)pyridin-2-yl)-2-methylpropanenitrile] | 0.013 µM | 0.025 µM | 0.008 µM | 0.19 µM | 0.23 µM | 80%
 | Cn1c(=O)n(-c2ccc(C(C)(C)C#N)nc2)c2c3cc(-c4cnc5ccccc5c4)ccc3ncc21 [Example 2, 2-Methyl-2-(5-(3-methyl-2-oxo-8-(quinolin-3-yl)-2,3-dihydro-1H-imidazo[4,5-c]quinolin-1-yl)pyridin-2-yl)propanenitrile] | 0.024 µM | 0.068 µM | 0.04 µM |  |  | 71%
0.00289 µM | COc1ccc(-n2c(=O)n(C)c3cnc4ccc(-c5cnc(N)c(C(F)(F)F)c5)cc4c32)cn1 [Example 19, 8-(6-Amino-5-(trifluoromethyl)pyridin-3-yl)-1-(6-methoxypyridin-3-yl)-3-methyl-1H-imidazo[4,5-c]quinolin-2(3H)-one] | < 0.01 µM | 0.006 µM | 0.016 µM | 0.06 µM | 0.06 µM | 87%
0.00137 µM | CS(=O)(=O)O.Cn1c(=O)n(-c2ccc(C(C)(C)C#N)nc2)c2c3cc(-c4cnc(N)c(C(F)(F)F)c4)ccc3ncc21 [Example 3a, 8-(6-Amino-5-(trifluoromethyl)pyridin-3-yl)-1-(6-(2-cyanopropan-2-yl)pyridin-3-yl)-3-methyl-2-oxo-2,3-dihydro-1H-imidazo[4,5-c]quinolin-5-ium methanesulfonate] |  |  |  |  |  | 
 | Cn1c(=O)n(-c2ccc(C(C)(C)C#N)nc2)c2c3cc(-c4cnc(N)c(C(F)(F)F)c4)ccc3ncc21 [Example 3, 2-(5-(8-(6-Amino-5-(trifluoromethyl)pyridin-3-yl)-3-methyl-2-oxo-2,3-dihydro-1H-imidazo[4,5-c]quinolin-1-yl)pyridin-2-yl)-2-methylpropanenitrile] | < 0.005 µM | 0.005 µM | 0.01 µM | 0.19 µM | 0.06 µM | 93%
